Data from publication PMC6920997, “Total Phenolic and Flavonoid Content and Biological Activities of Extracts and Isolated Compounds of Cytisus villosus Pourr” (Biomolecules, 2019).
In brackets after ≈: the same amount, converted by molar mass.

Legend:
μ opioid receptor = μ opioid receptor (Homo sapiens, UniProt P35372); type: binding
[1] = Cytotoxicity against Vero cell line (antimalarial counterscreen); type: cell-based; conditions: African green monkey
From the text: (§1) The in vitro antileishmanial and antitrypanosomal assays were done on cell cultures of L. donovani promastigotes, axenic amastigotes, THP1-amastigotes, and Trypanosoma brucei trypomastigotes by Alamar Blue assays. The conditions for seeding the THP1 cells, exposure to the test samples, and evaluation of cytotoxicity were the same as described in parasite-rescue and transformation assay. IC50 and IC90 values were computed from the dose response curves using XLfit software (XLfit 5.3.1, IDBS analytical, Boston MA, USA). DFMO (difluoromethylornithine) was used as the positive control. The antiprotozoal activity of C. villosus extracts and isolated compounds were evaluated in vitro against L. donovani promastigotes, axenic amastigotes, and intracellular amastigotes in THP1 cells. The extracts and some isolated compounds were also evaluated against T. brucei trypomastigote forms. All the extracts and compounds were simultaneously tested against THP1 cell for determination of general cytotoxicity. The extracts and isolated compounds were also evaluated for their antimalarial activity against chloroquine-sensitive (D6, Sierra Leone) and chloroquine-resistant strains (W2, Indochina) strains of Plasmodium falciparum. Furthermore, they were tested for cytotoxicity against the Vero cell line.

Cryptococcus neoformans = assay: Antifungal assay C. neoformans; type: cell-based; conditions: pure compounds
Procedure: (§2) Extracts and pure compounds were tested for their antimicrobial activity against Staphylococcus aureus, methicillin-resistant S. aureus (MRSA), Escherichia coli, Pseudomonas aeruginosa, and Mycobacterium intracellulare. The antifungal activities were evaluated against a panel of pathogenic fungi, including Candida albicans, C. glabrata, C. krusei, Aspergillus fumigatus, and Cryptococcus neoformans, associated with opportunistic infections.

iNOS = assay: Inhibition of iNOS (intracellular NO production) in RAW 264.7 macrophages; type: cell-based; conditions: Mus musculus, RAW264.7; RAW 264.7 cells; NA = no activity at 25 µg/mL (pure compounds) or 100 µg/mL (extracts)
Procedure: The extracts and isolated compounds of C. villosus were evaluated in terms of their interaction with cellular targets related to inflammation and metabolic disorders, such as iNOS and NF-κB. The inhibition of intracellular NO production as a result of iNOS activity was assayed in mouse macrophages (RAW 264.7cells). Cytotoxicity of test samples to macrophages was also determined in parallel to check if the inhibition of iNOS was due to cytotoxic effects.

P. falciparum (D6 Clone) = assay: Antimalarial assay, chloroquine-sensitive D6 clone; type: cell-based, Plasmodium falciparum; conditions: selectivity index = IC50 for cytotoxicity/IC50 for antimalarial activity
From the text: as §1

Staphylococcus aureus = assay: Antibacterial assay S. aureus; type: cell-based; conditions: pure compounds
Procedure: as §2

NF-κB = assay: Reporter gene assay for the inhibition of NF-κB; type: cell-based; conditions: PMA-treated cells, luciferase reporter; NA = no activity at 25 µg/mL (pure compounds) or 100 µg/mL (extracts); read-out: Inhibition of NF-kB IC50
Procedure: Reporter gene assay for the inhibition of NF-κB Activity was performed as described earlier. In brief, cells transfected with NF-κB luciferase plasmid construct were plated in 96-well plates at a density of 1.25 × 10^5 cells/well. After 24 h, cells were treated with the test compounds and, after incubating for 30 min, phorbol 12-myristate 13-acetate (PMA) (Sigma-Aldrich, Burlington MA, USA) (70 ng/mL) was added and further incubated for 6−8 h. Luciferase activity was measured as described above. Percent decrease in luciferase activity was calculated relative to the vehicle control. Parthenolide (Sigma-Aldrich, Burlington MA, USA) was used as a positive control.

Candida albicans = assay: Antifungal assay C. albicans; type: cell-based; conditions: pure compounds
Procedure: as §2

Escherichia coli = assay: Antibacterial assay E. coli; type: cell-based; conditions: pure compounds
Procedure: as §2

Pseudomonas aeruginosa = assay: Antibacterial assay P. aeruginosa; type: cell-based; conditions: pure compounds
Procedure: as §2

κ opioid receptor = κ opioid receptor (Homo sapiens, UniProt P41145); type: binding
δ opioid receptor = δ opioid receptor (Homo sapiens, UniProt P41143); assay: Radioligand displacement δ opioid receptor; type: binding
P. falciparum (W2 Clone) = assay: Antimalarial assay, chloroquine-resistant W2 clone; type: cell-based, Plasmodium falciparum; conditions: selectivity index = IC50 for cytotoxicity/IC50 for antimalarial activity
From the text: as §1

Chain of δ opioid receptor (P41143 whole entry): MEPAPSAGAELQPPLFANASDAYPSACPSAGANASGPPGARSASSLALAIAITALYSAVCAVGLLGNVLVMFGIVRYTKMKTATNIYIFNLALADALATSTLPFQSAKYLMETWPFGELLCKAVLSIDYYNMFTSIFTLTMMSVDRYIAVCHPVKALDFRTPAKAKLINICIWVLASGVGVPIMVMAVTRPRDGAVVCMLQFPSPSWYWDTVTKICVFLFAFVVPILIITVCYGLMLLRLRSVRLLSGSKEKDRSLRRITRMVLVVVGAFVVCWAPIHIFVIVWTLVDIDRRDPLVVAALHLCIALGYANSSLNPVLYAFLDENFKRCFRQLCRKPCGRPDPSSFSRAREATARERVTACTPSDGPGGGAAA
Chain of κ opioid receptor (P41145 whole entry): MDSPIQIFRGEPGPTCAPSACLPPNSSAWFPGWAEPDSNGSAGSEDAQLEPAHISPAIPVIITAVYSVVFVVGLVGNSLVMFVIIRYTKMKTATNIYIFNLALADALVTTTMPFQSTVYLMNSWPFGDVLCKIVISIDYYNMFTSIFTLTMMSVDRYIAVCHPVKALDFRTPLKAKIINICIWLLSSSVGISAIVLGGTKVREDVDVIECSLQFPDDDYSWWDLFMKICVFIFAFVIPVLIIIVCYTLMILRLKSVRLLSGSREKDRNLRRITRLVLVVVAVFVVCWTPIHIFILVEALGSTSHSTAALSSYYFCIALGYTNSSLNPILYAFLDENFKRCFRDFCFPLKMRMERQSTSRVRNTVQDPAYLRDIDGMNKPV
Chain of μ opioid receptor (P35372 whole entry): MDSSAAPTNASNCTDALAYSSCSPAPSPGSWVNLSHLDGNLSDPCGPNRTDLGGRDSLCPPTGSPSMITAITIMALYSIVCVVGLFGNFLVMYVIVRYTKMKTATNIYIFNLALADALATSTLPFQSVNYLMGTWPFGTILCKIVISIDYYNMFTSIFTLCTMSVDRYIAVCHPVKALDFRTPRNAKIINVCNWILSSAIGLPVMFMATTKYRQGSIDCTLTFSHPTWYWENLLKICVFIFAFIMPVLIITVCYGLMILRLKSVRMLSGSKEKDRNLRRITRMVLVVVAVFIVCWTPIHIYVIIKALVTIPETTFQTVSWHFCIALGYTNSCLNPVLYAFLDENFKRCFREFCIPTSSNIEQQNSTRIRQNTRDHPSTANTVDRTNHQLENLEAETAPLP

**Q.** What does the source list for `O=c1cc(-c2ccccc2)oc2cc(O)cc(O)c12` [Compound 2, chrysin]?
**A.** Opioid Receptors (%) μ radioligand displacement (μ opioid receptor): 12.2%; IC50 [1]: > 4.76 µg/mL; IC50 (Cryptococcus neoformans): > 20 µg/mL; IC50 (iNOS): > 25 µg/mL; SI (first SI column of Table 7, presumably D6) (P. falciparum (D6 Clone)): 1; IC50 (Staphylococcus aureus): > 20 µg/mL; IC50 (NF-κB): 38 µg/mL (≈ 149 µM); IC50 (Candida albicans): > 20 µg/mL; IC50 (Escherichia coli): > 20 µg/mL; IC50 (Pseudomonas aeruginosa): > 20 µg/mL; Opioid Receptors (%) κ radioligand displacement (κ opioid receptor): 12.8%; Opioid Receptors (%) δ radioligand displacement (δ opioid receptor): 8.7%; SI (second SI column of Table 7, presumably W2) (P. falciparum (W2 Clone)): 1
